Assay results taken from ChEMBL document CHEMBL3351506, “Synthesis and antiproliferative activity of conjugates of adenosine with muramyl dipeptide and nor-muramyl dipeptide derivatives” (Bioorg Med Chem Lett, 2014).

How the values were obtained:
L1210 [1] = test: Ratio of IC50 for mouse L1210 cells by MTT assay to EC50 for mouse L1210 cells by [3H]thymidine incorporation assay; type: functional
L1210 [2] = test: Antitumor activity against mouse L1210 cells assessed as inhibition of [3H]thymidine incorporation after 72 hrs; type: functional, cell-based
L1210 [3] = test: Cytotoxicity against mouse L1210 cells assessed as inhibition of cell viability after 72 hrs by MTT assay; type: functional, cell-based; conditions: L1210, 72 h
L1210 [4] = test: Cytotoxicity against mouse L1210 cells assessed as inhibition of cell viability after 72 hrs by MTT assay relative to control; type: functional; design: concentration or dose not given beside the values; conditions: values are per cent of control
L1210 [5] = test: Antitumor activity against mouse L1210 cells assessed as inhibition of [3H]thymidine incorporation at 0.5 mg/ml after 72 hrs relative to control; type: functional; conditions: values are per cent of control
PBMC = test: Cytotoxicity against human PBMC assessed as inhibition of cell viability after 72 hrs by MTT assay; type: cell-based
[6] = Cytotoxicity against human PBMC assessed as inhibition of cell viability at 0.5 mg/ml after 72 hrs by MTT assay; type: cell-based; conditions: PBMC (peripheral blood mononuclear cells), read-out: INH
L1210 [7] = test: Antitumor activity against mouse L1210 cells assessed as inhibition of [3H]thymidine incorporation at 0.215 mg/ml after 72 hrs relative to control; type: functional
[8] = Cytotoxicity against human PBMC assessed as inhibition of cell viability at 0.21 mg/ml after 72 hrs by MTT assay; type: cell-based; conditions: PBMC (peripheral blood mononuclear cells), read-out: INH
L1210 [9] = test: Cytotoxicity against mouse L1210 cells assessed as inhibition of cell viability at 0.5 mg/ml after 72 hrs by MTT assay; type: functional; conditions: L1210, 72 h
L1210 [10] = test: Antitumor activity against mouse L1210 cells assessed as inhibition of [3H]thymidine incorporation at 0.25 mg/ml after 72 hrs relative to control; type: functional
[11] = Cytotoxicity against human PBMC assessed as inhibition of cell viability at 0.25 mg/ml after 72 hrs by MTT assay; type: cell-based; conditions: PBMC (peripheral blood mononuclear cells), read-out: INH

SMILES | Ratio IC50/EC50 (L1210 [1]) | EC50 (L1210 [2]) [µM] | IC50 (L1210 [3]) [µM] | viability, % of control (L1210 [4]) [%] | growth, % of control at 500 µg/mL (L1210 [5]) [%] | IC50 (PBMC) [µM] | cytotoxicity at 72 h, 0.5 mg/ml [6] [%] | inhibition at 215 µg/mL (L1210 [7]) [%] | cytotoxicity at 72 h, 0.21 mg/ml [8] [%] | inhibition at 500 µg/mL (L1210 [9]) [%] | inhibition at 250 µg/mL (L1210 [10]) [%] | cytotoxicity at 72 h, 0.25 mg/ml [11] [%]
CC(=O)N[C@H]1[C@@H](OCc2ccccc2)O[C@H](CO)[C@@H](O)[C@@H]1O[C@H](C)C(=O)N1CCC[C@@H]1C(=O)N[C@H](CCC(=O)NCCNc1ncnc2c1ncn2[C@@H]1O[C@H](CO)[C@@H](O)[C@H]1O)C(N)=O | 9.3 | 507 | 311 | 43.1 | 4.65 | 271 |  |  |  |  |  | 
CC(=O)N[C@H]1[C@@H](OCc2ccccc2)O[C@H](CO)[C@@H](O)[C@@H]1OCC(=O)N[C@@H](C(=O)N[C@H](CCC(=O)NCCNc1ncnc2c1ncn2[C@@H]1O[C@H](CO)[C@@H](O)[C@H]1O)C(N)=O)C(C)C | 2.6 | 512 | 285 | 31.65 | 12.3 | 561 | < 50 |  |  |  |  | 
CC(=O)N[C@H]1[C@@H](OCc2ccccc2)O[C@H](CO)[C@@H](O)[C@@H]1OCC(=O)N[C@@H](C(=O)N[C@H](CCC(=O)O)C(N)=O)C(C)C | 23.7 | 193 | 170 | 26.6 |  | 361 | < 50 | 1.12 | < 50 |  |  | 
CC(=O)N[C@H]1[C@@H](OCc2ccccc2)O[C@H](CO)[C@@H](O)[C@@H]1O[C@H](C)C(=O)N[C@@H](C(=O)N[C@H](CCC(=O)NCCNc1ncnc2c1ncn2[C@@H]1O[C@H](CO)[C@@H](O)[C@H]1O)C(N)=O)C(C)C | -0.3 | 458 | 161 | -0.87 | 2.9 | 234 |  |  |  |  |  | 
CC(=O)N[C@H]1[C@@H](OCc2ccccc2)O[C@H](CO)[C@@H](O)[C@@H]1O[C@H](C)C(=O)N[C@H](C)C(=O)N[C@H](CCC(=O)NCCNc1ncnc2c1ncn2[C@@H]1O[C@H](CO)[C@@H](O)[C@H]1O)C(N)=O | 3.7 | 517 | 287 | 35.91 | 9.75 | 389 |  |  |  |  |  | 
CC[C@@H](NC(=O)CO[C@H]1[C@H](O)[C@@H](CO)O[C@H](OCc2ccccc2)[C@@H]1NC(C)=O)C(=O)N[C@H](CCC(=O)NCCNc1ncnc2c1ncn2[C@@H]1O[C@H](CO)[C@@H](O)[C@H]1O)C(N)=O | 19.6 | 506 | 571 | 53.6 | 2.73 | 466 |  |  |  | < 50 |  | 
CC(=O)N[C@H]1[C@@H](OCc2ccccc2)O[C@H](CO)[C@@H](O)[C@@H]1OCC(=O)N[C@H](CO)C(=O)N[C@H](CCC(=O)NCCNc1ncnc2c1ncn2[C@@H]1O[C@H](CO)[C@@H](O)[C@H]1O)C(N)=O | 2.1 | 541 | 570 | 64.95 | 31.6 | 479 |  |  |  |  |  | 
CC(=O)N[C@H]1[C@@H](OCc2ccccc2)O[C@H](CO)[C@@H](O)[C@@H]1O[C@H](C)C(=O)N[C@@H](C)C(=O)N[C@H](CCC(=O)NCCCCCC(=O)Nc1ncnc2c1ncn2[C@@H]1O[C@H](CO)[C@@H](O)[C@H]1O)C(N)=O | 0.3 | 529 | 529 | 65.58 | 192 | 529 | < 50 |  |  |  |  | 
CC(=O)N[C@H]1[C@@H](OCc2ccccc2)O[C@H](CO)[C@@H](O)[C@@H]1O[C@H](C)C(=O)N[C@H](C(=O)N[C@H](CCC(=O)NCCNc1ncnc2c1ncn2[C@@H]1O[C@H](CO)[C@@H](O)[C@H]1O)C(N)=O)C(C)C | 1.9 | 292 | 555 | 59.37 | 31.1 | 555 | < 50 |  |  | < 50 |  | 
Nc1ncnc2c1ncn2[C@@H]1O[C@H](CO)[C@@H](O)[C@H]1O [ADENOSINE] | 0.2 | 1870 | 991 | 32.79 | 132 | 1870 | < 50 |  |  |  |  | 
CC(=O)N[C@H]1[C@@H](OCc2ccccc2)O[C@H](CO)[C@@H](O)[C@@H]1OCC(=O)N[C@H](C)C(=O)N[C@H](CCC(=O)NCCNc1ncnc2c1ncn2[C@@H]1O[C@H](CO)[C@@H](O)[C@H]1O)C(N)=O | 44.7 | 500 | 270 | 29.84 | 0.67 | 298 |  |  |  |  |  | 
CC(=O)N[C@H]1[C@@H](OCc2ccccc2)O[C@H](CO)[C@@H](O)[C@@H]1O[C@H](C)C(=O)N[C@@H](C(=O)N[C@H](CCC(=O)O)C(N)=O)C(C)C | 47.9 | 228 | 266 | 39.72 |  | 244 |  |  |  |  | 0.83 | < 50
CC[C@@H](NC(=O)[C@@H](C)O[C@H]1[C@H](O)[C@@H](CO)O[C@H](OCc2ccccc2)[C@@H]1NC(C)=O)C(=O)N[C@H](CCC(=O)NCCNc1ncnc2c1ncn2[C@@H]1O[C@H](CO)[C@@H](O)[C@H]1O)C(N)=O | 33.8 | 446 | 220 | 29.01 | 0.86 | 439 |  |  |  |  |  | 
CC(=O)N[C@H]1[C@@H](OCc2ccccc2)O[C@H](CO)[C@@H](O)[C@@H]1OCC(=O)N[C@@H](C)C(=O)N[C@H](CCC(=O)NCCCCCC(=O)Nc1ncnc2c1ncn2[C@@H]1O[C@H](CO)[C@@H](O)[C@H]1O)C(N)=O | 0.4 | 537 | 537 | 70.64 | 178 | 537 | < 50 |  |  |  |  | 
CC(=O)N[C@H]1[C@@H](OCc2ccccc2)O[C@H](CO)[C@@H](O)[C@@H]1OCC(=O)N1CCC[C@@H]1C(=O)N[C@H](CCC(=O)NCCNc1ncnc2c1ncn2[C@@H]1O[C@H](CO)[C@@H](O)[C@H]1O)C(N)=O | 8.7 | 511 | 562 | 52.99 | 6.1 | 280 |  |  |  | < 50 |  | 
CC(=O)N[C@H]1[C@@H](OCc2ccccc2)O[C@H](CO)[C@@H](O)[C@@H]1O[C@H](C)C(=O)N[C@H](CO)C(=O)N[C@H](CCC(=O)NCCNc1ncnc2c1ncn2[C@@H]1O[C@H](CO)[C@@H](O)[C@H]1O)C(N)=O | 5.5 | 497 | 218 | 28.09 | 5.14 | 324 |  |  |  |  |  | 
CC(=O)N[C@H]1[C@@H](OCc2ccccc2)O[C@H](CO)[C@@H](O)[C@@H]1OCC(=O)N[C@H](CO)C(=O)N[C@H](CCC(=O)O)C(N)=O | 19.3 | 290 | 314 | 14.68 | 0.76 | 858 | < 50 |  |  |  |  | 
CC(=O)N[C@H]1[C@@H](OCc2ccccc2)O[C@H](CO)[C@@H](O)[C@@H]1OCC(=O)N[C@H](C)C(=O)N[C@H](CCC(=O)O)C(N)=O | 36.6 | 363 | 287 | 19.97 | 0.55 | 335 |  |  |  |  |  | 
CC(=O)N[C@@H]1[C@@H](O[C@H](C)C(=O)N[C@H](C)C(=O)N[C@H](CCC(=O)O)C(N)=O)[C@H](O)[C@@H](CO)O[C@@H]1O | 0.4 | 1010 | 1010 | 64.93 | 146 | 1010 | < 50 |  |  |  |  | 
